Consider 3 compounds from US20240252454A1, “COMPOSITION COMPRISING AN INHIBITOR OF MITOCHONDRIAL TRANSCRIPTION” (LEAD DISCOVERY CENTER GMBH, priority 2021, published 2024).

Read-outs that look alike come from different tables or passages of the source.

Common to all, as to assay: CellTiter-GLO (CTG) assay, combinatorial matrix
Holding throughout (format): cell-based

Experiment [1] has as its system primary human blood cells (PBMC). The following applies: hPBMCs, 72 hours, BAY-876 0 (IMT alone), IMT at the μM of c0, untreated control =100%. As to the method:
(§1) To determine the in vitro cellular viability, cellular ATP concentrations were measured using a luminescence-based homogenous assay format, as described here. […] Optimal cell density for each cell line was determined to guarantee linearity. For viability assays with compounds, cells were then seeded at a density of 200 to 1000 per well in 25 μl in 384-well plates (Greiner Bio-One, Frickenhausen, Germany). After overnight incubation at 37° C./5% CO2, 25 nl or 75 nl compounds were added to each sample well by using BIOMEK FXP Laboratory Automation Workstation (Beckman Coulter, USA). Wells with cells and 0.1% or 0.3% DMSO in culture medium were used as positive controls, wells with cells and 10 μM staurosporine (Selleck Chemicals, Huston, USA) in culture medium were used as negative controls. Upon incubation with compounds for 72 h at 37° C./5% CO2 25 μl Cell Titer Glo reagent (Promega, Madison, USA, European Pat. No. 1131441, U.S. Pat. Nos. 7,083,911, 7,452,663 and 7,732,128) 1:2 diluted with cell culture medium) was added to each well to determine cell viability. 384well-plates were placed for 2 min on an orbital microplate shaker and incubated for further 10 min at room temperature resulting in a stabilization of light signal. Luminescence was measured by Envision Plate Reader (Perkin Elmer, USA).
(§2) All in vitro cell culture experiments were carried out under near physiological glucose concentrations (5 mM) in at least two independent replicates.
(§3) To establish the method described, N,N-dimethyl-2-[4-(o-tolyl)-2-oxo-chromen-7-yl]oxy-propanamide, (3S)-1-[2-[4-(2-chloro-4-fluoro-phenyl)-2-oxo-chromen-7-yl]oxypropanoyl]piperidine-3-carboxylic acid, (3S)-1-[(2R)-2-[4-(2-chloro-4-fluoro-phenyl)-2-oxo-chromen-7-yl]oxypropanoyl]piperidine-3-carboxylic acid and BAY-876 were first examined with regard to their effect on the cell growth of twelve different tumour cell lines and the IC50 values were determined. This initial study was followed by validation experiments in a matrix format and in the CTG assay, as described under Example 1), in two tumour cell lines from uterine and ovarian carcinoma (HEC59 and A2780), as well as in primary human blood cells (PBMC) (Table 7).
(§4) Combinations of one concentration of IMT (μM; y-axis) and 30 μM-33 nM BAY-876 (x-axis) were incubated for 72 hours with HEC59, hPBMCs or A2780 and then the cellular ATP-content was determined using the CellTiter-GLO assay format. A: Measured residual activity (%) based on an untreated control group (=100%). B: The combinatorial indices are provided, based on the reference groups treated with the corresponding concentration of only one inhibitor class, according to Berenbaum and Cou & Talalay. <1=synergism, 1-2=additivity, 2>=antagonism.

Experiment [2] concerns HEC59. The note with it: HEC59, 72 hours, BAY-876 0 (IMT alone), IMT at the μM of c0, untreated control =100%. The protocol:
as §1, §2, §3, §4

For experiment [3], the system named is A2780. The following applies: for Measured residual activity (cellular ATP content) / activity at 0.04 µM / activity at 0.1 µM / activity at 0.4 µM / activity at 1.1 µM / activity at […] / activity at 10 µM / activity at 30 µM: A2780, 72 hours, untreated control =100%; for combination of IMT and PARPi compared to treatment with just the PARPi alone: A2780, CTG matrix, 30 μM to 10 nM IMT (3S)-1-[(2R)-2-[4-(2-chloro-4-fluoro-phenyl)-2-oxo-chromen-7-yl]oxypropanoyl]piperidine-3-carboxylic acid + 30 μM to 40 nM of the labelled PARPi; for activity at 0.04 µM / activity at 0.1 µM / activity at 0.4 µM / activity at 1.1 µM / activity at […] / activity at 10 µM / activity at 30 µM: Homo sapiens, read-out: Measured residual activity (cellular ATP content). As to the method: as §1, §2

As for `C[C@@H](Oc1ccc2c(-c3ccc(F)cc3Cl)cc(=O)oc2c1)C(=O)N1CCC[C@H](C(=O)O)C1` [IMT], the “Measured residual activity (cellular ATP content)” value is 98% in experiment [1] (IMT 0.059 µM); 94% in experiment [1] (IMT 0.234 µM); 99% in experiment [2] (IMT 0.005 µM); 39% in experiment [2] (IMT 1.25 µM); 35% in experiment [3] (BAY-876 0 (IMT alone), IMT at the μM of c0, IMT 0.12 µM); 32% in experiment [3] (BAY-876 0 (IMT alone), IMT at the μM of c0, IMT 0.47 µM). The “Measured residual activity (cellular ATP content)” value turned out to be 29% in experiment [3] (BAY-876 0 (IMT alone), IMT at the μM of c0, IMT 1.88 µM); 30% in experiment [3] (Olaparib 0 (IMT alone), IMT (3S)-1-[(2R)-2-[4-(2-chloro-4-fluoro-phenyl)-2-oxo-chromen-7-yl]oxypropanoyl]piperidine-3-carboxylic acid at the μM of c0); 25% in experiment [3] (Rucaparib 0 (IMT alone), IMT (3S)-1-[(2R)-2-[4-(2-chloro-4-fluoro-phenyl)-2-oxo-chromen-7-yl]oxypropanoyl]piperidine-3-carboxylic acid at the μM of c0); 29% in experiment [3] (Veliparib 0 (IMT alone), IMT (3S)-1-[(2R)-2-[4-(2-chloro-4-fluoro-phenyl)-2-oxo-chromen-7-yl]oxypropanoyl]piperidine-3-carboxylic acid at the μM of c0, IMT 0.2 µM); 31% in experiment [3] (Veliparib 0 (IMT alone), IMT (3S)-1-[(2R)-2-[4-(2-chloro-4-fluoro-phenyl)-2-oxo-chromen-7-yl]oxypropanoyl]piperidine-3-carboxylic acid at the μM of c0, IMT 7.5 µM).
Regarding `CNCc1ccc(-c2[nH]c3cc(F)cc4c3c2CCNC4=O)cc1` [Rucaparib], in experiment [3], the “combination of IMT and PARPi compared to treatment with just the PARPi alone” value was “advantage of the combination”. Also, the activity at 0.04 µM in experiment [3] (Rucaparib 0.04 μM, IMT (3S)-1-[(2R)-2-[4-(2-chloro-4-fluoro-phenyl)-2-oxo-chromen-7-yl]oxypropanoyl]piperidine-3-carboxylic acid at the μM of c0) came out at 90%. Moreover, the activity at 0.1 µM in experiment [3] (Rucaparib 0.1 μM, IMT (3S)-1-[(2R)-2-[4-(2-chloro-4-fluoro-phenyl)-2-oxo-chromen-7-yl]oxypropanoyl]piperidine-3-carboxylic acid at the μM of c0) is 70%. In experiment [3] (Rucaparib 0.4 μM, IMT (3S)-1-[(2R)-2-[4-(2-chloro-4-fluoro-phenyl)-2-oxo-chromen-7-yl]oxypropanoyl]piperidine-3-carboxylic acid at the μM of c0), the activity at 0.4 µM amounted to 42%. The activity at 1.1 µM in experiment [3] (Rucaparib 1.1 μM, IMT (3S)-1-[(2R)-2-[4-(2-chloro-4-fluoro-phenyl)-2-oxo-chromen-7-yl]oxypropanoyl]piperidine-3-carboxylic acid at the μM of c0) worked out at 21%. Moreover, in experiment [3] (Rucaparib 3.3 μM, IMT (3S)-1-[(2R)-2-[4-(2-chloro-4-fluoro-phenyl)-2-oxo-chromen-7-yl]oxypropanoyl]piperidine-3-carboxylic acid at the μM of c0), the activity at […] came to 6%. In addition, the activity at 10 µM in experiment [3] (Rucaparib 10 μM, IMT (3S)-1-[(2R)-2-[4-(2-chloro-4-fluoro-phenyl)-2-oxo-chromen-7-yl]oxypropanoyl]piperidine-3-carboxylic acid at the μM of c0) was 0%. In experiment [3] (Rucaparib 30 μM, IMT (3S)-1-[(2R)-2-[4-(2-chloro-4-fluoro-phenyl)-2-oxo-chromen-7-yl]oxypropanoyl]piperidine-3-carboxylic acid at the μM of c0), the activity at 30 µM is 0%.
For `C[C@]1(c2nc3c(C(N)=O)cccc3[nH]2)CCCN1` [Veliparib], in experiment [3], the “combination of IMT and PARPi compared to treatment with just the PARPi alone” value was “advantage of the combination”. For the same compound, the activity at 0.04 µM in experiment [3] (Veliparib 0.04 μM, IMT (3S)-1-[(2R)-2-[4-(2-chloro-4-fluoro-phenyl)-2-oxo-chromen-7-yl]oxypropanoyl]piperidine-3-carboxylic acid at the μM of c0) was determined as 99%. The activity at 0.1 µM in experiment [3] (Veliparib 0.1 μM, IMT (3S)-1-[(2R)-2-[4-(2-chloro-4-fluoro-phenyl)-2-oxo-chromen-7-yl]oxypropanoyl]piperidine-3-carboxylic acid at the μM of c0) worked out at 99%. The activity at 0.4 µM in experiment [3] (Veliparib 0.4 μM, IMT (3S)-1-[(2R)-2-[4-(2-chloro-4-fluoro-phenyl)-2-oxo-chromen-7-yl]oxypropanoyl]piperidine-3-carboxylic acid at the μM of c0) was determined as 97%. In addition, the activity at 1.1 µM in experiment [3] (Veliparib 1.1 μM, IMT (3S)-1-[(2R)-2-[4-(2-chloro-4-fluoro-phenyl)-2-oxo-chromen-7-yl]oxypropanoyl]piperidine-3-carboxylic acid at the μM of c0) worked out at 89%. The activity at […] in experiment [3] (Veliparib 3.3 μM, IMT (3S)-1-[(2R)-2-[4-(2-chloro-4-fluoro-phenyl)-2-oxo-chromen-7-yl]oxypropanoyl]piperidine-3-carboxylic acid at the μM of c0) stood at 85%. The activity at 10 µM in experiment [3] (Veliparib 10 μM, IMT (3S)-1-[(2R)-2-[4-(2-chloro-4-fluoro-phenyl)-2-oxo-chromen-7-yl]oxypropanoyl]piperidine-3-carboxylic acid at the μM of c0) was 43%. The activity at 30 µM in experiment [3] (Veliparib 30 μM, IMT (3S)-1-[(2R)-2-[4-(2-chloro-4-fluoro-phenyl)-2-oxo-chromen-7-yl]oxypropanoyl]piperidine-3-carboxylic acid at the μM of c0) is 6%.
